Experimental data published in PubChem BioAssay AID248 (DTP/NCI, 2004).
“And” between values parts separate entries of the source, which are not always exact repeats. Equal values may be shown once. Toxic doses and inconclusive results are not listed.

Test system: L1210 leukemia ip in BDF1 mice, survival T/C
Assay: NCI In Vivo Anticancer Drug Screen. Data for tumor model L1210 Leukemia (intraperitoneal) in B6D2F1 (BDF1) mice
Details: endpoint: mean survival time, higher = longer survival
Description: The antitumor activity of compounds was measured in mice bearing transplantable tumors. Survival or tumor size were measured and the results are expressed as the measurement made in the treated group (T) divided by the measurement made in the vehicle treated control group (C). The tumor model used in this assay is L1210 Leukemia (intraperitoneal) in B6D2F1 (BDF1) mice

[1] = dose: 100.0 mg/kg/injection, schedule: Q01DX001 (ip), vehicle: saline
[2] = dose: 50.0 mg/kg/injection, schedule: Q01DX009 (ip), vehicle: Klucel (hydroxypropylcellulose) (HPC)
[3] = dose: 100.0 mg/kg/injection, schedule: Q01DX009 (ip), vehicle: Klucel (hydroxypropylcellulose) (HPC)
[4] = dose: 200.0 mg/kg/injection, schedule: Q01DX009 (ip), vehicle: Klucel (hydroxypropylcellulose) (HPC)
[5] = dose: 100.0 mg/kg/injection, schedule: Q04DX002 (ip), vehicle: saline with Tween-80
[6] = dose: 200.0 mg/kg/injection, schedule: Q04DX002 (ip), vehicle: saline with Tween-80
[7] = dose: 400.0 mg/kg/injection, schedule: Q04DX002 (ip), vehicle: saline with Tween-80
[8] = dose: 50.0 mg/kg/injection, schedule: Q01DX009 (ip), vehicle: saline with Tween-80
[9] = dose: 100.0 mg/kg/injection, schedule: Q01DX009 (ip), vehicle: saline with Tween-80
[10] = dose: 100.0 mg/kg/injection, schedule: Q04DX003 (ip), vehicle: saline
[11] = dose: 200.0 mg/kg/injection, schedule: Q01DX001 (ip), vehicle: saline
[12] = dose: 200.0 mg/kg/injection, schedule: Q04DX003 (ip), vehicle: saline
[13] = dose: 400.0 mg/kg/injection, schedule: Q01DX001 (ip), vehicle: saline
[14] = dose: 400.0 mg/kg/injection, schedule: Q04DX003 (ip), vehicle: saline
[15] = dose: 100.0 mg/kg/injection, schedule: Q01DX001 (ip), vehicle: Klucel (hydroxypropylcellulose) (HPC)
[16] = dose: 100.0 mg/kg/injection, schedule: Q04DX003 (ip), vehicle: saline with Tween-80
[17] = dose: 200.0 mg/kg/injection, schedule: Q01DX009 (ip), vehicle: saline with Tween-80
[18] = dose: 200.0 mg/kg/injection, schedule: Q04DX003 (ip), vehicle: saline with Tween-80
[19] = dose: 400.0 mg/kg/injection, schedule: Q01DX009 (ip), vehicle: saline with Tween-80
[20] = dose: 400.0 mg/kg/injection, schedule: Q04DX003 (ip), vehicle: saline with Tween-80
[21] = dose: 200.0 mg/kg/injection, schedule: Q01DX001 (ip), vehicle: Klucel (hydroxypropylcellulose) (HPC)
[22] = dose: 400.0 mg/kg/injection, schedule: Q01DX001 (ip), vehicle: Klucel (hydroxypropylcellulose) (HPC)

With c1ccc2occc2c1 the T/C [1] was 103 % of control.
In the case of COC(=O)C/C(=N\NC(=O)c1ccccc1)C(=O)OC, the T/C [2] is reported as 98 % of control, the T/C [3] is reported as 93 % of control and the T/C [4] is reported as 98 % of control. The T/C (dose: 400.0 mg/kg/injection, schedule: Q01DX009 (ip), vehicle: Klucel (hydroxypropylcellulose) (HPC)) was 93 % of control.
O=C1C2CCCC3CCCC(C(=O)N1O)C32 (stereo not drawn) was tested, and the T/C [5] was 104 % of control, the T/C [6] was 99 % of control and the T/C [7] was 86 % of control.
For O=C(CCCC(=O)N/N=C/c1ccc2ccccc2n1)N/N=C\c1ccc2ccccc2n1, the T/C (dose: 50.0 mg/kg/injection, schedule: Q01DX001 (ip), vehicle: other) was 95 % of control, the T/C (dose: 100.0 mg/kg/injection, schedule: Q01DX001 (ip), vehicle: other) was 88 % of control and the T/C (dose: 400.0 mg/kg/injection, schedule: Q01DX001 (ip), vehicle: other) was 95 % of control.
CNC(=O)OC1CCCCC1CN(C)C (stereo not drawn) was tested, and the T/C (dose: 55.0 mg/kg/injection, schedule: Q01DX Z (ip), vehicle: saline) was 91 % of control, the T/C (dose: 83.0 mg/kg/injection, schedule: Q01DX Z (ip), vehicle: saline) was 109 % of control and the T/C (dose: 125.0 mg/kg/injection, schedule: Q01DX Z (ip), vehicle: saline) was 113 % of control.
In the case of N#CCCSc1ccccc1, the T/C (dose: 25.0 mg/kg/injection, schedule: Q01DX009 (ip), vehicle: saline with Tween-80) is reported as 112 % of control, the T/C [8] is reported as 91 % of control and the T/C [9] is reported as 100 % of control and 105 % of control. For the same compound, the T/C [5] was 86 % of control and the T/C [6] was 100 % of control.
Nn1cnc2c(SCc3ccccc3)ncnc21 was tested, and the T/C (dose: 50.0 mg/kg/injection, schedule: Q01DX001 (ip), vehicle: carboxymethylcellulose (CMC)) was 101 % of control, the T/C (dose: 62.0 mg/kg/injection, schedule: Q01DX015 (ip), vehicle: carboxymethylcellulose (CMC)) was 115 % of control and the T/C (dose: 93.0 mg/kg/injection, schedule: Q01DX015 (ip), vehicle: carboxymethylcellulose (CMC)) was 121 % of control. The T/C (dose: 100.0 mg/kg/injection, schedule: Q01DX001 (ip), vehicle: carboxymethylcellulose (CMC)) was 101 % of control, the T/C (dose: 140.0 mg/kg/injection, schedule: Q01DX015 (ip), vehicle: carboxymethylcellulose (CMC)) was 158 % of control and the T/C (dose: 200.0 mg/kg/injection, schedule: Q01DX001 (ip), vehicle: carboxymethylcellulose (CMC)) was 122 % of control.
COC(=O)C1CCCCC1NC(C)=O (stereo not drawn) was tested, and the T/C [1] was 102 % of control, the T/C [10] was 114 % of control and the T/C [11] was 110 % of control. The T/C [12] was 100 % of control, the T/C [13] was 103 % of control and the T/C [14] was 103 % of control.
In the case of CC(=O)OCC1OC(O)C(NC(=O)C(F)(F)F)C(OC(C)=O)C1OC(C)=O (stereo not drawn), the T/C (dose: 12.5 mg/kg/injection, schedule: Q04DX003 (ip), vehicle: saline) is reported as 109 % of control and the T/C (dose: 25.0 mg/kg/injection, schedule: Q04DX003 (ip), vehicle: saline) is reported as 96 % of control.
For CC1(C)OC(C)(C)C1(O)C(=O)O, the T/C [1] was 97 % of control, the T/C [11] was 101 % of control and the T/C [13] was 105 % of control.
For COc1ccc(C=Nc2ccnc3cc(OC)c(OC)cc23)cc1OC, the T/C (dose: 100.0 mg/kg/injection, schedule: Q01DX001 (ip), vehicle: saline with Tween-80) was 93 % of control, the T/C (dose: 200.0 mg/kg/injection, schedule: Q01DX001 (ip), vehicle: saline with Tween-80) was 104 % of control and the T/C (dose: 400.0 mg/kg/injection, schedule: Q01DX001 (ip), vehicle: saline with Tween-80) was 102 % of control.
In the case of N#C/C(C(N)=O)=C1\CCCc2sccc21, the T/C [1] is reported as 102 % of control and the T/C [11] is reported as 95 % of control.
Cc1cn(Cc2ccc(Cl)cc2Cl)c(C)n1 was tested, and the T/C (dose: 25.0 mg/kg/injection, schedule: Q01DX001 (ip), vehicle: Klucel (hydroxypropylcellulose) (HPC)) was 100 % of control, the T/C (dose: 25.0 mg/kg/injection, schedule: Q01DX009 (ip), vehicle: Klucel (hydroxypropylcellulose) (HPC)) was 97 % of control and 109 % of control and the T/C (dose: 50.0 mg/kg/injection, schedule: Q01DX001 (ip), vehicle: Klucel (hydroxypropylcellulose) (HPC)) was 100 % of control. For the same compound, the T/C (dose: 50.0 mg/kg/injection, schedule: Q04DX002 (ip), vehicle: Klucel (hydroxypropylcellulose) (HPC)) was 102 % of control and 108 % of control and the T/C [15] was 94 % of control.
O=C(/C=C/c1ccccc1)NC12CC3CC(CC(C3)C1)C2 was tested, and the T/C [10] was 91 % of control, the T/C [12] was 93 % of control and the T/C [14] was 100 % of control.
For COC(=O)c1ccccc1NC(=O)Nc1ccccc1F, the T/C [2] was 90 % of control, the T/C [3] was 96 % of control and the T/C [4] was 93 % of control.
In the case of CCOC(=O)c1ccc(NC(=O)Oc2ccccc2C(C)C)cc1, the T/C [9] is reported as 97 % of control and 107 % of control, the T/C [5] is reported as 101 % of control and the T/C [16] is reported as 97 % of control. For the same compound, the T/C [17] was 93 % of control and 97 % of control, the T/C [6] was 92 % of control and the T/C [18] was 93 % of control. The T/C [19] was 89 % of control, the T/C [7] was 92 % of control and the T/C [20] was 102 % of control.
O=P(c1ccccc1)(c1ccccc1)c1ccccc1 was tested, and the T/C (dose: 50.0 mg/kg/injection, schedule: Q01DX001 (ip), vehicle: saline) was 102 % of control, the T/C [1] was 98 % of control and the T/C [11] was 98 % of control.
CCNC(C)(C)C(SSSC(c1ccc(C(F)(F)F)cc1)C(C)(C)NCC)c1ccc(C(F)(F)F)cc1 (stereo not drawn) was tested, and the T/C (dose: 6.25 mg/kg/injection, schedule: Q01DX009 (ip), vehicle: saline) was 91 % of control, the T/C (dose: 12.5 mg/kg/injection, schedule: Q01DX009 (ip), vehicle: saline) was 96 % of control and the T/C (dose: 25.0 mg/kg/injection, schedule: Q01DX009 (ip), vehicle: saline) was 95 % of control.
CCCCCCCCCCCCCCCCOc1ccc(S(=O)(=O)N2CCOCC2)cc1[N+](=O)[O-] was tested, and the T/C (dose: 75.0 mg/kg/injection, schedule: Q04DX003 (ip), vehicle: saline) was 103 % of control, the T/C [15] was 97 % of control and the T/C (dose: 150.0 mg/kg/injection, schedule: Q04DX003 (ip), vehicle: saline) was 93 % of control. The T/C [21] was 104 % of control, the T/C (dose: 300.0 mg/kg/injection, schedule: Q04DX003 (ip), vehicle: saline) was 95 % of control and the T/C [22] was 104 % of control.
With CCC1=C(C)C(=O)C2CCCCC2C1=O (stereo not drawn) the T/C [15] was 105 % of control, the T/C (dose: 100.0 mg/kg/injection, schedule: Q01DX009 (ip), vehicle: saline sonified) was 95 % of control and the T/C [21] was 111 % of control. The T/C (dose: 200.0 mg/kg/injection, schedule: Q01DX009 (ip), vehicle: saline sonified) was 97 % of control, the T/C [22] was 96 % of control and the T/C (dose: 400.0 mg/kg/injection, schedule: Q01DX009 (ip), vehicle: saline sonified) was 92 % of control.
In the case of Cc1cccc2ccc3ccc4ccccc4c3c12, the T/C [16] is reported as 96 % of control, the T/C [18] is reported as 89 % of control and the T/C [20] is reported as 92 % of control.
For O=C(O)c1ccc(NC(=S)Nc2ccc(C(=O)O)cc2)cc1, the T/C [9] was 93 % of control, the T/C [10] was 94 % of control and the T/C [17] was 112 % of control. For the same compound, the T/C [12] was 100 % of control, the T/C [19] was 93 % of control and the T/C [14] was 104 % of control.
Cc1cc(N(C)C)cc(C)c1N=Nc1cc[n+]([O-])cc1 was tested, and the T/C (dose: 12.5 mg/kg/injection, schedule: Q04DX003 (ip), vehicle: saline with Tween-80) was 98 % of control, the T/C (dose: 25.0 mg/kg/injection, schedule: Q04DX003 (ip), vehicle: saline with Tween-80) was 98 % of control and the T/C [8] was 95 % of control. The T/C (dose: 50.0 mg/kg/injection, schedule: Q04DX003 (ip), vehicle: saline with Tween-80) was 100 % of control, the T/C [9] was 91 % of control and the T/C [17] was 91 % of control.
For CC(=O)OC1CCC2(C)C(=CC=C3C2CCC2(C)C(C(C)=O)CCC32)C1 (stereo not drawn), the T/C (dose: 100.0 mg/kg/injection, schedule: Q04DX002 (ip), vehicle: Klucel (hydroxypropylcellulose) (HPC)) was 86 % of control, the T/C (dose: 200.0 mg/kg/injection, schedule: Q04DX002 (ip), vehicle: Klucel (hydroxypropylcellulose) (HPC)) was 110 % of control and the T/C (dose: 400.0 mg/kg/injection, schedule: Q04DX002 (ip), vehicle: Klucel (hydroxypropylcellulose) (HPC)) was 104 % of control.
OCC1OC(n2cnc3c(SCc4ccccc4)nc(NO)nc32)C(O)C1O (stereo not drawn) was tested, and the T/C (dose: 267.0 mg/kg/injection, schedule: Q01DX001 (ip), vehicle: saline with Tween-80) was 150 % of control.
